According to patent publication US6399542B1, “Alkoxyimino-substituted bicyclic compounds compositions containing the same and method of making such compounds” (Agro-Kanesho Co., Ltd., priority 1997, dated 2002):
Like-named read-outs stand apart in the source and are kept apart here.

What was measured:
Format in all cases: in vivo
Erysiphe graminis = assay: Effects on Barley powdery mildew (preventive spray test); settings: lesions counted seven days after inoculation
Puccinia recondita = assay: Effect on Wheat brown rust (preventive spray test); settings: 7 days after inoculation
Botrytis cinerea = assay: Effect on Cucumber gray mold (cotyledon paper disc test); settings: 3 days after inoculation
Pyricularia oryzae = settings: Rice blast, 7 days after inoculation
[1] = tested on: Psecidoperonospora cubensis; assay: Effect on Cucumber downy mildew (preventive spray test); settings: 7 days after inoculation
Chochliobolus miyabeanus = assay: Effect on Rice brown spot (preventive spray test); settings: 7 days after inoculation
Phytophthora infestans = settings: Tomato late blight, 5 days after inoculation
[2] = conc. of active ingredient 20 ppm
[3] = conc. of active ingredient 100 ppm
[4] = conc. of active ingredient 4 ppm

Row | SMILES | Preventive rate (%) (Erysiphe graminis; [2]) | Preventive rate (%) (Erysiphe graminis; [3]) | Preventive rate (%) (Puccinia recondita; [2]) | Preventive rate (%) (Puccinia recondita; [3]) | Preventive rate (%) (Botrytis cinerea; [2]) | Preventive rate (%) (Botrytis cinerea; [3]) | Preventive rate (%) (Erysiphe graminis; [4]) | Preventive rate (%) (Puccinia recondita; [4]) | Preventive rate (%) (Pyricularia oryzae; [4]) | Preventive rate (%) (Pyricularia oryzae; [2]) | Preventive rate (%) (Pyricularia oryzae; [3]) | Preventive rate (%) [1, 4] [%] | Preventive rate (%) [1, 2] [%] | Preventive rate (%) [1, 3] [%] | Preventive rate (%) (Chochliobolus miyabeanus; [4]) | Preventive rate (%) (Chochliobolus miyabeanus; [2]) | Preventive rate (%) (Chochliobolus miyabeanus; [3]) | Preventive rate (%) (Phytophthora infestans; [4]) | Preventive rate (%) (Phytophthora infestans; [2]) | Preventive rate (%) (Phytophthora infestans; [3])
1 | CNC(=O)C(OC)c1ccccc1COc1ccc2c(c1)OCC2=NOC (racemic) [a-11] | 88 | 100 | 88 | 100 | 40 | 87 | – | – | – | – | – | – | – | – | – | – | – | – | – | –
2 | COC=C(C(=O)OC)c1ccccc1COc1ccc2c(c1C)OC(C)CC2=NOC (racemic) [d-8] | 100 | 100 | 100 | 100 | – | – | 100 | 100 | 77 | 83 | 100 | – | – | – | – | – | – | – | – | –
3 | CNC(=O)C(=NOC)c1ccccc1COc1ccc2c(c1C)CC(C)C2=NOC (racemic) [f-4] | – | – | – | – | – | – | – | – | – | – | – | 100 | 100 | 100 | 68 | 70 | 90 | – | – | –
4 | COC=C(C(=O)OC)c1ccccc1COc1ccc2c(c1C)C(C)CC2=NOC (racemic) [f-5] | 100 | 100 | 100 | 100 | – | – | 97 | 100 | 72 | 89 | 94 | 99 | 100 | 100 | 53 | 94 | 98 | 92 | 100 | 100
5 | CO/C=C(/C(=O)OC)c1ccccc1COc1ccc2c(c1C)OC(C)C2=NOC (single isomer, unassigned) [b-4] | 100 | 100 | 100 | 100 | – | – | 98 | 100 | – | 89 | 95 | – | – | – | – | – | – | – | 97 | 97
6 | CO/C=C(/C(=O)OC)c1ccccc1COc1ccc2c(c1C)OC(C)C2=NOC (single isomer, unassigned) [b-5] | 98 | 100 | 100 | 100 | – | – | 98 | 100 | – | 84 | 95 | – | – | – | – | – | – | – | 91 | 97
7 | CON=C(C(=O)OC)c1ccccc1COc1cc2c(cc1C)C(=NOC)C(C)C2 (single isomer, unassigned) [f-10] | – | – | – | – | – | – | – | – | 85 | 85 | 90 | – | – | 100 | – | – | – | – | 97 | 98
8 | CNC(=O)C(=NOC)c1ccccc1COc1cc2c(cc1C)C(=NOC)C(C)C2 (single isomer, unassigned) [f-11] | 100 | 100 | 100 | 100 | – | – | 100 | 100 | 72 | 83 | 100 | 100 | 100 | 100 | – | – | – | 100 | 100 | 100
9 | COC=C(C(=O)OC)c1ccccc1COc1ccc2c(c1)OCC2=NOC [a-2] | 79 | 100 | 100 | 100 | – | – | – | 98 | – | 95 | 97 | – | 100 | 100 | – | 93 | 96 | 97 | 97 | 100
10 | CON=C1COc2c1ccc(OCc1ccccc1/C(=N\OC)C(=O)OC)c2C [a-15] | – | – | 96 | 100 | 73 | 96 | – | 96 | – | – | – | – | – | – | – | – | – | – | 81 | 94
11 | CON=C1COc2cc(OCc3ccccc3/C(=N\OC)C(=O)OC)c(C)cc21 [a-26] | – | – | 100 | 100 | 72 | 87 | – | 100 | – | – | – | – | 100 | 100 | – | – | – | – | 81 | 100
12 | CCON=C1COc2c1ccc(OCc1ccccc1/C(=N\OC)C(=O)NC)c2C [a-36] | – | – | 100 | 100 | – | – | – | 100 | – | 90 | 99 | – | 100 | 100 | 69 | 93 | 96 | – | 91 | 98
13 | CNC(=O)/C(=N/OC)c1ccccc1COc1ccc2c(c1)OCC2=NOC(C)C [a-40] | – | – | 97 | 100 | 100 | 100 | – | – | – | – | – | – | 97 | 100 | – | – | – | – | – | –
14 | CCCON=C1COc2c1ccc(OCc1ccccc1/C(=N\OC)C(=O)NC)c2C [a-42] | 88 | 100 | 100 | 100 | – | – | – | 100 | – | 90 | 98 | 100 | 100 | 100 | – | 85 | 91 | – | 98 | 98
15 | C=CCON=C1COc2c1ccc(OCc1ccccc1/C(=N\OC)C(=O)NC)c2C [a-60] | 100 | 100 | 100 | 100 | – | – | – | 100 | – | 86 | 91 | 100 | 100 | 100 | – | – | – | – | 97 | 97
16 | CNC(=O)/C(=N/OC)c1ccccc1COc1ccc2c(c1)OCC2=NOC/C=C/Cl [a-63] | 100 | 100 | – | – | 100 | 100 | 99 | – | – | – | – | – | 100 | 100 | – | – | – | – | – | –
17 | CON=C1c2ccc(OCc3ccccc3/C(=N\OC)C(=O)OC)c(C)c2OC1C (stereo not drawn) [b-6] | 89 | 90 | – | – | – | – | – | – | – | 84 | 88 | – | 100 | 100 | – | 70 | 90 | – | 92 | 94
18 | C=C(Cl)CON=C1CCOc2c1ccc(OCc1ccccc1C(=NOC)C(=O)NC)c2C [c-64] | 96 | 100 | 99 | 100 | – | – | – | 99 | – | 80 | 98 | – | – | – | – | – | – | – | – | –
19 | CON=C(C(=O)OC)c1ccccc1COc1ccc2c(c1C)OC(C)(C)CC2=NOC [d-6] | – | – | 92 | 99 | – | – | – | – | 71 | 77 | 92 | – | – | – | – | – | – | – | – | –
20 | COC=C(C(=O)OC)c1ccccc1COc1ccc2c(c1)CCC2=NO [e-1] | – | – | – | – | – | – | – | – | – | – | – | – | – | – | 87 | – | – | – | – | –
21 | CON=C1CCc2cc(OCc3ccccc3C(=NOC)C(=O)OC)c(C)cc21 [e-26] | 100 | 100 | 98 | 98 | – | – | – | – | – | – | – | 75 | 100 | 100 | – | 71 | 91 | – | 97 | 100
22 | C#CCON=C1CCc2c1ccc(OCc1ccccc1C(=NOC)C(=O)NC)c2C [e-61] | 98 | – | 100 | 100 | – | – | – | 100 | – | – | – | 100 | 100 | 100 | 84 | 90 | 90 | – | 98 | 100
